The METLIN SMRT retention time set (Domingo-Almenara et al. 2019)

Assay: gradient 5% acetonitrile 3 min, to 50% in 2 min, to 85% in 15 min, held 3 min, 100 µL/min
Conditions: column: Zorbax Extend-C18 2.1 x 50 mm; eluents: water / acetonitrile, 0.1% formic acid
In short: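 Pure standards were run in mixtures of ~100 molecules by HPLC coupled to a quadrupole time-of-flight mass spectrometer. The column was a Zorbax Extend-C18 (2.1 × 50 mm, 1.8 μm) at 100 μL/min, with water and acetonitrile each containing 0.1% formic acid, in positive and negative ionization mode. Dead and dwell volumes were 40 μL and 900 μL. Retention time was taken from computationally picked adduct peaks, each manually inspected, with data collected over 3 months.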

RP-LC retention time [s]	SMILES
864	O=C(Cc1csc2nc(-c3ccccc3)cn12)NCCC1=CCCCC1
1150	CC1CCN(S(=O)(=O)c2ccc(-c3nnc(C(=O)NCCCc4ccccc4)o3)cc2)CC1
787	CC1(C(=O)NCc2ccccc2)CN(S(=O)(=O)c2ccccc2)CC(=O)N1C1CCCC1 (centres undefined)
583	Cc1cc(N2CCN(C)CC2)nc2ccc(NC(=S)N(C)C3CCCCC3)cc12
692	COc1ccccc1OCCC1CCN(S(=O)(=O)Cc2ccccc2)C1 (centres undefined)
684	O=C1C(c2ccncc2)N(Cc2ccccc2)C(=O)CN1c1ccccc1 (centres undefined)
784	O=C(NC1CCCC1)C1CCCN(S(=O)(=O)c2c[nH]c(C(=O)N3CCCCCC3)c2)C1 (centres undefined)
903	CN1C(=O)c2cc(S(=O)(=O)NCc3ccccc3Cl)ccc2Oc2cccnc21
1010	Cc1cc(C)cc(NS(=O)(=O)c2cc(-c3nc(C)cs3)cs2)c1
696	COc1ccc(-n2nc3c(N4CCCC(C(=O)NC5CCCC5)C4)nnc(C)c3c2C)cc1 (centres undefined)
871	O=C(CN1C(=O)CC(c2ccccc2)S(=O)(=O)c2ccccc21)Nc1ccccc1F (centres undefined)
884	CN(Cc1ccccc1)C(=O)c1cc2c(=O)oc3ccccc3c2n1C
663	CCCNC(=O)C1CCN(c2ccc(SCC(=O)NCc3ccc(C)c(C)c3)nn2)CC1
835	CCc1cc(C2CCCN2C(=O)Nc2cccc(OC)c2)on1 (centres undefined)
644	c1ccc(-c2cn3ccccc3n2)cc1
1040	COCCCn1c(=O)c2ccccc2n(Cc2nc(-c3cccc(OC)c3)no2)c1=O
1040	CCCS(=O)(=O)N1CCC2(CC1)C(OC)CN2c1cccc(F)c1 (centres undefined)
763	COc1ccc2c(=O)cc(-c3cccnc3)oc2c1OC
1100	CCCCCNC(=O)C1CCN(c2nccnc2Sc2ccc(C)cc2)CC1
777	Cc1cc(C)n2nc(CN(C(=O)c3cccs3)c3ccccc3)nc2n1
909	O=C(NC1CC1)C1Cc2ccccc2CN1S(=O)(=O)c1ccc(Cl)cc1 (centres undefined)
1100	O=C(Nc1ccc(Cl)c(Cl)c1)Nc1ccc([N+](=O)[O-])cn1
670	CCCNC(=O)C1CCCN(c2ccc(SCC(=O)Nc3ccccc3Br)nn2)C1 (centres undefined)

RP-LC retention time [s]	SMILES
705	O=S(=O)(c1ccc2nc(N3CCN(C4CCCCC4)CC3)cnc2c1)N1CCCCC1
818	Cn1nccc1-c1cccc(-c2noc(-c3ccccn3)n2)c1
814	Cc1cc(F)ccc1N1C(=O)CN(S(C)(=O)=O)CC1(C)C(=O)NCc1ccc(F)cc1 (centres undefined)
799	Cc1ccc(NC(=O)N2CCC3(CC2)NC(=O)c2ccccc2O3)cc1F
632	CSc1cccc(NC(=O)N2CCc3nc(CNC(=O)C4CCC4)n(C)c3C2)c1
964	CN(CCc1noc(COc2ccccc2)n1)C(=O)Nc1cccc(Br)c1
604	COc1ccc(OC)c(S(=O)(=O)N2CCCC(C(=O)NCc3ccncc3)C2)c1 (centres undefined)
679	c1cc(-c2nc(-c3ccc4nncn4c3)no2)co1
656	Cc1nn(-c2ccc(N3CCCCC3)nn2)c(C)c1CCC(=O)N1CCN(c2ncccn2)CC1
841	Cc1ccc(-n2c(=O)c3c(cc(C)n3C)n(CC(=O)Nc3ccccc3F)c2=O)cc1
589	CC1CCCN(c2ccc(-c3noc(CN4CCC(C(N)=O)CC4)n3)cn2)C1 (centres undefined)
1090	Cc1c(-c2noc(-c3ccc(F)c(F)c3)n2)nnn1Cc1ccccc1
767	Cc1ccc(NC(=O)Nc2ccccc2)c(=O)n1CC(=O)N1CCCC1
942	O=C(c1csc(N2CCN(c3ccc(Cl)cc3)CC2)n1)N1CCOCC1
628	Cc1ccn2cc(C(=O)NCc3ccccc3F)nc2c1
740	O=C1[C@H]2CN(Cc3ccc(Cl)cc3)C[C@H]2C(=O)N1CCN1CCc2ccccc2C1
593	O=C(O)C1CCCCC1C(=O)NCCc1csc(-c2cccnc2)n1 (centres undefined)
562	O=C(c1ccoc1)N1CCCC(c2nnc3n2CCN(C2CCCC2)C3)C1 (centres undefined)
682	COc1ccc(S(=O)(=O)N2CCCC(C(=O)Nc3ccc(C(N)=O)cc3)C2)cc1OC (centres undefined)
743	COCCNC(=O)CN1c2ccccc2NC2=C(C(=O)CC(C)(C)C2)C1c1ccc(OC)cc1 (centres undefined)
744	COC(=O)c1ccc2c(=O)n(-c3cccc(Cl)c3)c(N3CCN(c4ccccn4)CC3)nc2c1
976	Cc1ccccc1-c1nnc(COc2ccc(NC(=O)Cc3cccs3)cc2)o1
850	O=C(CN1C(=O)CCC1=O)Nc1nc(-c2ccc(Cl)cc2Cl)cs1

RP-LC retention time [s]	SMILES
875	O=C(Cc1ccccc1)NCC(=O)NC(C(=O)N1CCCc2ccccc21)c1ccccc1 (centres undefined)
852	O=C(Nc1ccc(N2CCOCC2)cc1)C1CCCN(c2nccnc2Oc2ccccc2)C1 (centres undefined)
902	Cc1ccc(S(=O)(=O)N2CCC(C(=O)NC(C)C(=O)N3CCCc4ccccc43)CC2)cc1 (centres undefined)
904	CCCNC(=O)Cc1csc(-n2nc(C)c(Cl)c2C)n1
889	Cc1nc(-c2noc(-c3cccc(F)c3)n2)cn1CC(=O)Nc1cccc(F)c1
1180	CCOc1ccccc1NC(=O)N1c2ccccc2CC1c1nc(C2CC2)no1 (centres undefined)
681	Cc1ccc(CC(=O)N2CCc3c(c(C(=O)N4CCCC(C(=O)NC5CC5)C4)nn3C)C2)cc1 (centres undefined)
862	COc1ccc(C)cc1NC(=O)Cn1nc2nc(Nc3ccc(C)cc3)ccn2c1=O
617	O=C(C1CCCCC1)N1CCN(c2nc(CN3CCOCC3)cs2)CC1
1000	O=S(=O)(CCCOc1ccc2c(c1)OCO2)NCCC1=CCCCC1
588	Cc1nn(C)c(C)c1S(=O)(=O)N1CCC(n2c(C)cnc2-c2ccncc2)C1 (centres undefined)
859	Cc1cc(=O)n(CC(=O)Nc2cccc(Cl)c2)c(N2CCc3ccccc3C2)n1
860	Cc1ccc(-c2nnc(-c3cccc(S(=O)(=O)N4CCC(C(=O)O)CC4)c3)o2)cc1
946	CCCn1cc(CCNS(=O)(=O)Cc2cc(C)ccc2C)c2cccnc21
603	O=C(NCc1ccc(N2CCCCCC2)nc1)c1cncc(Br)c1
611	COC(=O)c1ccc(C(=O)NCC2(CO)CC2)cc1
649	CCc1nc2c(c(=O)n1CC(=O)NCc1ccccc1F)CN(Cc1ccccc1)CC2
614	Cc1ccnc(N2CCCC(C(=O)NCCN3CCN(c4ccccc4F)CC3)C2)n1 (centres undefined)
906	CN(CC1CCOCC1)S(=O)(=O)c1cccc(C(F)(F)F)c1
1020	Cc1nn(Cc2nc(-c3ccc(NC(=O)C4CCCCC4)cc3)oc2C)c(C)c1C
669	COc1cc(C(=O)N2CCC3(CC2)NC(=O)c2ccccc2N3C)cc(OC)c1OC
661	CCc1nc(N)n(CC(=O)Nc2ccc(Cl)cc2)c(=O)c1C
764	COc1ccc(CNC(=O)N2C[C@@H]3C[C@H]2C[C@@H]3NS(=O)(=O)c2ccccc2)cc1

RP-LC retention time [s]	SMILES
645	Cc1ccc(NC(=O)N2CCC(CN3CCCC(C)C3)CC2)cc1C (centres undefined)
575	CCN1CCN(c2nc(-c3cccc(C)c3)nnc2C)CC1
714	Cc1cc(C(=O)N2CCN(c3ccccc3F)CC2)n[nH]1
702	O=C(Cn1nc2n(c1=O)CCCCC2)NCc1ccc(Cl)cc1
746	Cc1nc2ccn(Cc3ccco3)c(=O)c2cc1C(=O)N1CCC(C)CC1
741	CCCNC(=O)C1CCCN(c2nc3ncn(CC(=O)Nc4ccc(CC)cc4)c(=O)c3s2)C1 (centres undefined)
863	CCOC(=O)CCc1c(C)nn(-c2cc(N3CCOCC3)ncn2)c1C
742	COc1ccc(C(=O)NC2CCN(c3ccc(=O)n(C)n3)C2)c(OC)n1 (centres undefined)
912	CCn1cc(-c2nc(C)c(C(=O)NCc3ccc(C)o3)s2)c2cccnc21
610	CCOc1cc(=O)c(C(=O)N2CCC(C(N)=O)CC2)nn1-c1ccc(C)cc1
835	O=C(c1ccc(S(=O)(=O)c2ccc(Br)cc2)nc1)N1CCN(c2ncccn2)CC1
696	COCCNc1c(-c2cccc(F)c2)nc2sc(C(N)=O)c(C)n12
632	CN(C)C/C=C/C(=O)Nc1cc2c(Nc3ccc(F)c(Cl)c3)ncnc2cc1O[C@H]1CCOC1
709	O=C(Cn1cccc1-c1nnc(-c2ccccc2)o1)N1CCN(Cc2ccc3c(c2)OCO3)CC1
688	COc1c(O)ccc2c1CN1CCc3cc4c(cc3C1C2)OCO4 (centres undefined)
591	CCOC(=O)c1ccc(NC(=O)COc2cc(C)nc(N3CCCC3)n2)cc1
726	CN(CC1CCOCC1)C(=O)Nc1ccc(Cl)cc1F
988	Cc1ccc(S(=O)(=O)CC(=O)Nc2nc(-c3ccc(F)cc3)cs2)cc1
674	COc1ccc(N2C(=O)CCC(C(=O)NC(C)C)C2c2ccc(OC)c(OC)c2)cc1 (centres undefined)
767	CCNC(=O)C1CCN(S(=O)(=O)c2cc(-c3noc(CC)n3)cs2)CC1
